This is an account of results in patent US11268145B2, “Methods for treating Cushing's syndrome” (priority 2015, dated 2022).

The experiment has as its system FKBP5 gene expression. As to the kind of experiment: FKBP5 gene expression in whole blood of healthy subjects after GR agonist, with or without GRA. The following applies: GAPDH normalized. The format is in vivo, human. The method, then: FIG. 1: depicts a study scheme for examining the expression level of the gene FKBP5, which encodes the FKBP5 protein, in response to administration of a GR modulator. In this scheme, healthy subjects are administered a GR agonist, followed by co-administration of a GR agonist and a GR antagonist (GRA). Blood samples are obtained from 10 subjects before each dose and at various time points after each dose. FKBP5 expression levels are measured before dosing on each day, and at selected times after dosing on each day.
Blood samples are taken before each dose and at various time-points after each dose. The study scheme is depicted in FIG. 1. The expression level of the FKBP5 gene is measured in the pre-administration samples obtained before dosing on each day and in the post-administration samples obtained at various time points after dosing on each day. Raw expression level data in the samples are normalized against the expression level of the glyceraldehyde phosphate dehydrogenase (GAPDH) gene in each sample.

For `Cn1cc(S(=O)(=O)N2CCC3=Cc4c(cnn4-c4ccc(F)cc4)C[C@]3(C(=O)c3cc(C(F)(F)F)ccn3)C2)cn1` [CORT125134], the “change in the fold change in FKBP5 expression” value (prednisone 25 mg with CORT125134 500 mg) was “significant decrease”. Regarding `CC#C[C@]1(O)CC[C@H]2[C@@H]3CCC4=CC(=O)CCC4=C3[C@@H](c3ccc(N(C)C)cc3)C[C@@]21C` [mifepristone], the “change in the fold change in FKBP5 expression” value (prednisone 25 mg with mifepristone 600 mg) is “significant decrease”.
